Results taken from paper PMC6073756, “Allicin Bioavailability and Bioequivalence from Garlic Supplements and Garlic Foods” (Nutrients, 2018).

Key:
[1] = Allicin bioavailability or bioequivalence bioassay: 32-h breath allyl methyl sulfide (AMS) concentration curve after consumption; type: in vivo, human; conditions: two tests, same person
[2] = set-up: method as in PMID 25681129; conditions: cited from earlier work
[3] = cited from earlier work
[4] = set-up: method as in doi:10.1055/s-2006-959976; conditions: added to whole blood; cited from earlier work

C=CC[S+]([O-])C[C@H](N)C(=O)O (mixture of isomers) [L(±)-alliin]
Differences in Tmax, RF2, or RRF2 versus natural L(+)-alliin [1]: No significant differences

C=CCSCC(N)C(=O)O (stereo not shown) [S-allyl-cysteine, S-allylcysteine]
Administered dose accounted for among the urinary metabolites [2]: 13%
Dose in urine as SAC plus N-acetyl-SAC [2]: 1%
Dose in urine as alliin plus N-acetyl-alliin [2]: 12%
Unknown metabolites [2]: 87%

C=CCS[S+]([O-])CC=C (stereo not shown) [allicin, diallyl thiosulfinate]
Share of the allicin consumed accounted for by breath AMS [3]: at least 90%
Half-life of metabolism to allyl mercaptan [4]: < 1 min
